From the Deep4Chem optical property database
Values belong to the molecule of their own block, whether it stands above or below them.

Assay: solvent given as SMILES

emission maximum (in C1CCCCC1): 435 nm | emission maximum (in CO): 501 nm | emission maximum (in CS(C)=O): 482 nm | emission maximum (in ClC(Cl)Cl): 455 nm | emission maximum (in c1ccccc1): 447 nm
Compound: CCC1=C(C)C(=O)n2c1cc1c(c(C)c(C(=O)OC)n1C)c2=O

emission maximum (in C1COCCO1): 559 nm | emission maximum (in CC#N): 651 nm | emission maximum (in ClCCl): 611 nm
Compound: CCCCN(CCCC)c1ccc(/C=C/c2ccc3nc(/C=C/c4ccc(N(C)C)cc4)c(=O)n(CCC)c3c2)cc1

emission maximum (in CC(=O)N(C)C): 650 nm | emission maximum (in ClCCl): 651 nm
Compound: C1=Cc2nc1c(-c1ccccc1)c1ccc([nH]1)c(-c1ccccc1)c1nc(c(-c3ccccc3)c3ccc([nH]3)c2-c2ccccc2)C=C1

emission maximum (in ClCCl): 415 nm
Compound: CCCCC(CC)COc1ccc2nc(-c3ccc(-c4c(C)noc4C)s3)sc2c1 (stereo not given)

emission maximum (in CCO): 575 nm | emission maximum (in ClCCl): 577 nm | emission maximum (in O): 569 nm
Compound: Oc1c(-c2ccco2)cccc1-c1nc2ccccc2s1

emission maximum (in CC#N): 523 nm | emission maximum (in ClCCl): 491 nm
Compound: Cc1cc(O)c(C(=O)/C=C/c2cccc(O)c2)c(=O)o1

emission maximum (in CCO): 438 nm
Compound: CCN(CC)c1cc2oc3cc(O)c(F)cc3c(=O)c2cc1F

emission maximum (in C1COCCO1): 588 nm | emission maximum (in CN(C)C=O): 604 nm | emission maximum (in CO): 618 nm | emission maximum (in CS(C)=O): 627 nm
Compound: O=C1/C(=C2\Sc3ccc(S(=O)(=O)Nc4ccccc4)cc3C2=O)Sc2ccc(S(=O)(=O)Nc3ccccc3)cc21

emission maximum (in CC#N): 464 nm
Compound: COc1cc2cc(C#Cc3ccc(/C=C(\C#N)C(=O)O)cc3)c(=O)oc2cc1OC

emission maximum (in ClCCl): 522 nm
Compound: CCCCCCCCCCCCN1C(=O)c2c(c3ccc4cc(-c5ccc(C(F)(F)F)cc5)c(OC)cc4c3c3c2ccc2cc(-c4ccc(C(F)(F)F)cc4)c(OC)cc23)C1=O

emission maximum (in ClCCl): 425 nm
Compound: O=S1(=O)Nc2ccc3c(c2-c2ccccc21)-c1ccccc1S(=O)(=O)N3

emission maximum (in C1CCOC1): 685 nm
Compound: F[B-]1(F)n2c(/C=C/c3ccc(C(=C(c4ccccc4)c4ccccc4)c4ccccc4)cc3)ccc2C(c2ccc(C(=C(c3ccccc3)c3ccccc3)c3ccccc3)cc2)=C2C=CC(/C=C/c3ccc(C(=C(c4ccccc4)c4ccccc4)c4ccccc4)cc3)=[N+]21

emission maximum (in C1COCCO1): 471 nm | emission maximum (in CC#N): 471 nm | emission maximum (in CCCCOCCCC): 471 nm | emission maximum (in CCOC(C)=O): 471 nm
Compound: CC(=O)Nc1ccc2c3cccc4cccc(c5cccc1c52)c43

emission maximum (in O): 649 nm
Compound: Cc1ccccc1C1=C2C=CC(=[N+](C)C)C=[C]2[Ge]([CH3])([CH3])[c]2cc(N(C)C)ccc21

emission maximum (in C1CCOC1): 420 nm | emission maximum (in C1COCCO1): 417 nm | emission maximum (in CC#N): 419 nm | emission maximum (in CC(C)O): 421 nm | emission maximum (in CCO): 422 nm | emission maximum (in CCOC(C)=O): 417 nm | emission maximum (in CN(C)C=O): 422 nm | emission maximum (in CO): 434 nm | emission maximum (in CS(C)=O): 425 nm | emission maximum (in O): 451 nm
Compound: NS(=O)(=O)c1ccc(N2N=C(c3ccc(O)cc3)CC2c2ccc([N+](=O)[O-])cc2)cc1 (stereo not given)

emission maximum (in ClCCl): 519 nm
Compound: CCCCCCN1C(=O)c2cccc3c(-c4ccc(-c5cc(-c6ccc(C)cc6)nn5-c5ccccc5)s4)ccc(c23)C1=O

emission maximum (in ClCCl): 511 nm
Compound: CCCCCCCCCCCCCCCCCCOc1ccc([B-]23NC(c4ccccc4)=Nc4cccc([n+]42)N=C(c2ccccc2)N3)cc1

emission maximum (in ClCCl): 537 nm
Compound: c1cc(-c2ccc(-n3c4ccccc4c4ccccc43)cc2)c2nsnc2c1

emission maximum (in ClC(Cl)Cl): 521 nm
Compound: COc1ccc(-c2nc(-c3ccc(C)cc3)c3ccccn23)cc1

emission maximum (in C1CCOC1): 406 nm
Compound: CCCCC1(CCCC)c2cc(C#Cc3ccc(C=C4c5ccccc5CCc5ccccc54)cc3)ccc2-c2ccc(C#Cc3ccc(C=C4c5ccccc5CCc5ccccc54)cc3)cc21

emission maximum (in C1CCOC1): 537 nm | emission maximum (in CCCCCC): 440 nm | emission maximum (in ClC(Cl)Cl): 489 nm | emission maximum (in ClCCl): 556 nm
Compound: CN1C(=O)c2cccc3c(-n4c5ccccc5c5ccccc54)ccc(c23)C1=O

emission maximum (in ClC(Cl)Cl): 498 nm
Compound: c1ccc(-c2nc(-c3ccc(N4CCCC4)cc3)cc(-c3ccc4ccccc4c3)n2)cc1

emission maximum (in CC#N): 348 nm | emission maximum (in CO): 353 nm | emission maximum (in O): 400 nm
Compound: CN(C)CCCN1c2ccccc2CCc2ccc(Cl)cc21

emission maximum (in C1CCOC1): 495 nm
Compound: CC(C)(C)c1ccc(C2=Cc3cc4c(cc3P2(=O)c2ccccc2)C=C(c2ccc(C(C)(C)C)cc2)P4(=O)c2ccccc2)cc1 (stereo not given)

emission maximum (in ClC(Cl)Cl): 700 nm
Compound: COc1ccc(N(c2ccc(OC)cc2)c2ccc(-c3ccc(C=C(C#N)C#N)s3)cc2)cc1

emission maximum (in C1CCOC1): 524 nm | emission maximum (in CC#N): 526 nm | emission maximum (in CCO): 520 nm | emission maximum (in CCOC(C)=O): 518 nm | emission maximum (in ClCCl): 504 nm | emission maximum (in c1ccccc1): 511 nm
Compound: CC1(C)CC(/C=C/c2ccc(-n3ccnc3)cc2)=CC(=C(C#N)C#N)C1

Second part, the molecule before the results:

Compound: CCn1c2ccccc2c2cc(-c3cc(-c4ccc5c(c4)c4ccccc4n5CC)nc(-c4ccc(OC)cc4)n3)ccc21
emission maximum (in C1CCOC1): 385 nm | emission maximum (in CCOC(C)=O): 384 nm | emission maximum (in CN(C)C=O): 414 nm | emission maximum (in Cc1ccccc1): 379 nm | emission maximum (in ClCCl): 404 nm

Compound: COC(=O)/C(C#N)=c1\s/c(=c2/s/c(=C(/C#N)C(=O)OC)c3cc(-c4ccc5c(c4)C(C)(C)c4ccccc4-5)sc23)c2sc(-c3ccc4c(c3)C(C)(C)c3ccccc3-4)cc12
emission maximum (in Cc1ccccc1): 682 nm

Compound: c1ccc(-c2nc(-c3ccccc3)nc(-c3ccc(-n4c5ccccc5c5cc(-n6c7ccccc7c7ccccc76)ccc54)cc3)n2)cc1
emission maximum (in Cc1ccccc1): 458 nm | emission maximum (in O=P(c1ccccc1)(c1ccccc1)c1ccccc1Oc1ccccc1P(=O)(c1ccccc1)c1ccccc1): 475 nm

Compound: CC(C)=CC(=O)c1cc2c(cc1F)NC(C)(C)CC2=O
emission maximum (in CC#N): 422 nm | emission maximum (in CCO): 459 nm

Compound: CCCCCCCCCCCCCCOc1ccc(C#Cc2cc3nc4c(OCCCCCCCCCCCC)cc5c6cc(OCCCCCCCCCCCC)c(OCCCCCCCCCCCC)cc6c6cc(OCCCCCCCCCCCC)c(OCCCCCCCCCCCC)cc6c5c4nc3cc2C#Cc2ccc(OCCCCCCCCCCCCCC)cc2)cc1
emission maximum (in ClC(Cl)Cl): 663 nm

Compound: CN(C)c1ccc(-c2ccc3n2[B-](F)(F)[N+]2=C(c4ccccc4)C=CC2=C3C(F)(F)F)cc1
emission maximum (in C1COCCO1): 756 nm | emission maximum (in CC#N): 772 nm | emission maximum (in CCCCCC): 696 nm | emission maximum (in CCCCO): 745 nm | emission maximum (in CCCCOCCCC): 728 nm | emission maximum (in CCO): 750 nm | emission maximum (in CCOC(C)=O): 755 nm | emission maximum (in CS(C)=O): 800 nm | emission maximum (in Cc1ccccc1): 746 nm | emission maximum (in ClC(Cl)(Cl)Cl): 712 nm

Compound: COc1ccc(C2=[N+]3C(=Nc4c(-c5cc(OC)c(OC)c(OC)c5Br)c(-c5ccc(C(C)(C)C)cc5)c(-c5ccc(OC)cc5)n4[B-]3(F)F)C(c3cc(OC)c(OC)c(OC)c3Br)=C2c2ccc(C(C)(C)C)cc2)cc1
emission maximum (in Cc1ccccc1): 740 nm

Compound: O=c1[nH]c(=O)n([C@@H]2O[C@H](CO)[C@@H](O)[C@H]2O)c2ccsc12
emission maximum (in CC#N): 344 nm | emission maximum (in CCOC(C)=O): 345 nm | emission maximum (in CO): 350 nm | emission maximum (in O): 351 nm

Compound: c1ccc(-c2cc(-c3ccc4ccc5c(-c6ccnc(-c7ccccn7)c6)ccc6ccc3c4c65)ccn2)nc1
emission maximum (in C1CCOC1): 408 nm | emission maximum (in CC#N): 418.01 nm | emission maximum (in CCC#N): 408 nm | emission maximum (in CCCC#N): 408 nm | emission maximum (in CCCCCC): 397.99 nm | emission maximum (in CCCO): 429 nm | emission maximum (in CCO): 430 nm | emission maximum (in CO): 430 nm | emission maximum (in Cc1ccccc1): 410.17 nm

Compound: c1ccc2c(c1)c1ccccc1n2-c1ccc2c(c1)c1ccccc1n2-c1cc2c3ccccc3n3c4ccccc4c(c1)c23
emission maximum (in C1CCCCC1): 391.83 nm | emission maximum (in C1CCOC1): 402.09 nm | emission maximum (in Cc1ccccc1): 400 nm

Compound: COc1ccc2c(c1)c1cc(OC)ccc1n2-c1ccc2c(c1)-c1cc(-n3c4ccc(OC)cc4c4cc(OC)ccc43)ccc1P2(=O)c1ccccc1
emission maximum (in Cc1ccccc1): 476 nm | emission maximum (in c1ccc2c(c1)c1ccccc1n2-c1ccc(-c2ccc(-n3c4ccccc4c4ccccc43)cc2)cc1): 490 nm

Compound: c1ccc(-c2nc3ccccc3nc2-c2ccccc2)cc1
emission maximum (in C1CCOC1): 401 nm | emission maximum (in CC#N): 399 nm | emission maximum (in CCCCCC): 396 nm | emission maximum (in CN(C)C=O): 403 nm | emission maximum (in Cc1ccccc1): 400 nm | emission maximum (in ClC(Cl)Cl): 398 nm

Compound: CCC1(CC)c2cc(C=C(C#N)C#N)ccc2-c2ccc(N(C)C)cc21
emission maximum (in C1CCCCC1): 528 nm | emission maximum (in CC#N): 688 nm | emission maximum (in CCO): 677 nm | emission maximum (in CCOCC): 579 nm | emission maximum (in CS(C)=O): 711 nm | emission maximum (in ClCCl): 631 nm | emission maximum (in c1ccccc1): 560 nm

Compound: CN(C)c1ccc(C(=O)Nc2cccc(Br)c2)cc1
emission maximum (in C1CCCCC1): 338 nm | emission maximum (in C1CCOC1): 455 nm | emission maximum (in CC#N): 496 nm | emission maximum (in CCOCC): 445 nm

Compound: Nc1cc(N)cc(-c2nc3ccccc3s2)c1
emission maximum (in C1CCCCC1): 410.5 nm | emission maximum (in C1COCCO1): 458 nm | emission maximum (in CC#N): 482 nm | emission maximum (in CC(C)O): 513 nm | emission maximum (in CCOC(C)=O): 468 nm | emission maximum (in CCOCC): 457 nm | emission maximum (in CO): 519 nm | emission maximum (in O): 541 nm

Compound: CC(C)(C)c1ccc(-c2nc3c4ccc(-c5ccc6ccc7cccc8ccc5c6c78)cc4c4cc(-c5ccc6ccc7cccc8ccc5c6c78)ccc4c3n2-c2ccc(C(C)(C)C)cc2)cc1
emission maximum (in C1CCOC1): 442 nm | emission maximum (in C1COCCO1): 432 nm | emission maximum (in CC#N): 460 nm | emission maximum (in CCCCCC): 428 nm | emission maximum (in CCCCOCCCC): 427 nm | emission maximum (in CCN(CC)CC): 428 nm | emission maximum (in CCOC(C)=O): 440 nm | emission maximum (in CCOCC): 432 nm | emission maximum (in CN(C)C=O): 459 nm | emission maximum (in Cc1ccccc1): 433 nm | emission maximum (in ClC=C(Cl)Cl): 437 nm | emission maximum (in ClCCl): 450 nm

Compound: COc1ccc(/C=C/c2ccncn2)cc1
emission maximum (in ClCCl): 418 nm

Compound: c1ccc2c(c1)Oc1ccccc1N2c1ccc2c(c1)c1cc(N3c4ccccc4Oc4ccccc43)ccc1c1nc3ccccc3nc21
emission maximum (in Cc1ccccc1): 614 nm

Compound: COc1ccc(-c2csc(/C(C#N)=N\Nc3ccc(C#N)cc3)n2)cc1
emission maximum (in CC#N): 505 nm | emission maximum (in CCO): 508 nm | emission maximum (in Cc1ccccc1): 494 nm | emission maximum (in ClCCl): 527 nm

Compound: N#Cc1c(-n2c3ccccc3c3cc(Br)ccc32)c(-n2c3ccccc3c3cc(Br)ccc32)c(C#N)c(-n2c3ccccc3c3cc(Br)ccc32)c1-n1c2ccccc2c2cc(Br)ccc21
emission maximum (in Cc1ccccc1): 543 nm
